Measured values published in patent US20160106439A1, “PNEUMATIC TOURNIQUET” (BIONUMERIK PHARMACEUTICALS, INC., priority 2013, published 2016).
Where two headings read alike, the source gives them in different places.

Tests used:
[1] = target: T1, mammalian thioredoxin reductase (TrxR) (Homo sapiens, UniProt Q16881); conditions: cited from earlier work
T1 sequence (Q16881 1-499 isoform Q16881-5): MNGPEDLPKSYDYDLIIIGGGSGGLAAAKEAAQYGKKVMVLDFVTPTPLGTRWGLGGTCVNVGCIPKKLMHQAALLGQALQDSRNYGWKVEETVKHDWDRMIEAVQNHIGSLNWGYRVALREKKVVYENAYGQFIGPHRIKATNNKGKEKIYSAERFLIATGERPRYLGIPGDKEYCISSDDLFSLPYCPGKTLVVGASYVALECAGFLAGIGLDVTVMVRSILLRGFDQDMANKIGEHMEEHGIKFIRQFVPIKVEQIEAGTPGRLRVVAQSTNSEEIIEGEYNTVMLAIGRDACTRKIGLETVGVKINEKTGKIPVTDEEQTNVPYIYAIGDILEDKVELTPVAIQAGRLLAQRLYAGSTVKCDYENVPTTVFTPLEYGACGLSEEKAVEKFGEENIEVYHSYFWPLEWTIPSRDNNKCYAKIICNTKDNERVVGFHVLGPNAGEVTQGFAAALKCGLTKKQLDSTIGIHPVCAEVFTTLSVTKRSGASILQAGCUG

[2] = target: T2, Recombinant human Trx (Homo sapiens, UniProt P10599); format: biochemical; design: 6xHis (N); purchased Sigma (Trx); American Diagnostica (bovine TrxR); conditions: over MSSH and MSSCE
T2 sequence (P10599 1-105): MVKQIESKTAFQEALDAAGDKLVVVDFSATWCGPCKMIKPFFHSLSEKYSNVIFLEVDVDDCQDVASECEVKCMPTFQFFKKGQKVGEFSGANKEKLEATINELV
Description: See, Luthman M and Holmgren A. Rat liver thioredoxin and thioredoxin reductase: purification and characterization. […] All disulfides were added to reactions as 10x solutions in buffer. The total volume of each reaction was 0.1 mL. Reactions were initiated by the addition of TrxR and were incubated at 25° C. for 40 minutes. Reactions were analyzed using a Molecular Devices SpectraMax Plus UV/vis plate reader and the activity was calculated using a 4 minute linear portion of each assay.

[3] = target: WT EGFR kinase (Homo sapiens, UniProt P00533); assay: WT EGFR kinase assay (ADP-glo); conditions: for potentiation of Erlotinib inhibition of WT EGFR kinase activity: 10 μM and 100 μM ATP
[4] = target: T3, TrxR/Trx system (Homo sapiens, UniProt P10599); assay: NADPH oxidation by TrxR and Trx; format: biochemical; conditions: increasing concentrations of the substance
T3 construct: 6xHis (N); purchased Sigma (Trx); American Diagnostica (bovine TrxR)
T3 sequence (P10599 1-105): T2 sequence (P10599 1-105)

[5] = target: T4, glutathione reductase (GR) (Homo sapiens, UniProt P00390); conditions: cited from earlier work
T4 sequence (P00390 44-522): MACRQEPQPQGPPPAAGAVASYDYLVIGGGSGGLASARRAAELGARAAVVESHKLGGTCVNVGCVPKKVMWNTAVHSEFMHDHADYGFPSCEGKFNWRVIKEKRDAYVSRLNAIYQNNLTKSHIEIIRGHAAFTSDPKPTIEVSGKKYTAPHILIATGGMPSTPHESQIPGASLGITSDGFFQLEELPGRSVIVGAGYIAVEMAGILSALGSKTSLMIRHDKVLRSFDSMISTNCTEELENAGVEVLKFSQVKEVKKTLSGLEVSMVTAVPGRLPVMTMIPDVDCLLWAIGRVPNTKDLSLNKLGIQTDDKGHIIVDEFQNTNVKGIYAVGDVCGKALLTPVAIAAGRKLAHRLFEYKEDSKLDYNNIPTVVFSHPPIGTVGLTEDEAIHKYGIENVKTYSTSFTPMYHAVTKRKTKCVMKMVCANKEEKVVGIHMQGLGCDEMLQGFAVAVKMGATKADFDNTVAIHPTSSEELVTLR

[6] = target: T2, Recombinant human Trx; assay: LC MS of Trypsin digested Trx after incubation with Tavocept, mesna or glutathione; format: binding; design: purchased Sigma (SigmaAldrich); host or cells: E. coli; conditions: control reactions with glutathione
[7] = target: T790M EGFR kinase (Homo sapiens, UniProt P00533, T790M); assay: T790M EGFR kinase assay (ADP-glo); format: biochemical; conditions: for IC50: read-out: IC50 on T790M EGFR kinase activity; for potentiation of Erlotinib inhibition of T790M EGFR kinase activity: 10 μM and 100 μM ATP
[8] = tested on: bovine brain microtubule protein (α-/β-tubulin); assay: Microtubule protein polymerization assay (OD350) and electron microscopy; format: biochemical; conditions: monoaquocisplatin 36 μM
[9] = target: ErbB-2 (Homo sapiens, UniProt P04626); design: key: the “+” and “−” symbols signify the ability and inability to activate each of the ErbB receptors, respectively; the “+” and “−” symbols signify the ability and inability to activate each of the ErbB receptors, respectively; conditions: ability to activate the receptor; cited from earlier work
[10] = target: ErbB-3 (Homo sapiens, UniProt P21860); design: key: the “+” and “−” symbols signify the ability and inability to activate each of the ErbB receptors, respectively; the “+” and “−” symbols signify the ability and inability to activate each of the ErbB receptors, respectively; conditions: ability to activate the receptor; cited from earlier work
[11] = target: ErbB-4 (Homo sapiens, UniProt Q15303); design: key: the “+” and “−” symbols signify the ability and inability to activate each of the ErbB receptors, respectively; the “+” and “−” symbols signify the ability and inability to activate each of the ErbB receptors, respectively; conditions: ability to activate the receptor; cited from earlier work
ErbB-4, sequence (Q15303 26-1308, species assumed): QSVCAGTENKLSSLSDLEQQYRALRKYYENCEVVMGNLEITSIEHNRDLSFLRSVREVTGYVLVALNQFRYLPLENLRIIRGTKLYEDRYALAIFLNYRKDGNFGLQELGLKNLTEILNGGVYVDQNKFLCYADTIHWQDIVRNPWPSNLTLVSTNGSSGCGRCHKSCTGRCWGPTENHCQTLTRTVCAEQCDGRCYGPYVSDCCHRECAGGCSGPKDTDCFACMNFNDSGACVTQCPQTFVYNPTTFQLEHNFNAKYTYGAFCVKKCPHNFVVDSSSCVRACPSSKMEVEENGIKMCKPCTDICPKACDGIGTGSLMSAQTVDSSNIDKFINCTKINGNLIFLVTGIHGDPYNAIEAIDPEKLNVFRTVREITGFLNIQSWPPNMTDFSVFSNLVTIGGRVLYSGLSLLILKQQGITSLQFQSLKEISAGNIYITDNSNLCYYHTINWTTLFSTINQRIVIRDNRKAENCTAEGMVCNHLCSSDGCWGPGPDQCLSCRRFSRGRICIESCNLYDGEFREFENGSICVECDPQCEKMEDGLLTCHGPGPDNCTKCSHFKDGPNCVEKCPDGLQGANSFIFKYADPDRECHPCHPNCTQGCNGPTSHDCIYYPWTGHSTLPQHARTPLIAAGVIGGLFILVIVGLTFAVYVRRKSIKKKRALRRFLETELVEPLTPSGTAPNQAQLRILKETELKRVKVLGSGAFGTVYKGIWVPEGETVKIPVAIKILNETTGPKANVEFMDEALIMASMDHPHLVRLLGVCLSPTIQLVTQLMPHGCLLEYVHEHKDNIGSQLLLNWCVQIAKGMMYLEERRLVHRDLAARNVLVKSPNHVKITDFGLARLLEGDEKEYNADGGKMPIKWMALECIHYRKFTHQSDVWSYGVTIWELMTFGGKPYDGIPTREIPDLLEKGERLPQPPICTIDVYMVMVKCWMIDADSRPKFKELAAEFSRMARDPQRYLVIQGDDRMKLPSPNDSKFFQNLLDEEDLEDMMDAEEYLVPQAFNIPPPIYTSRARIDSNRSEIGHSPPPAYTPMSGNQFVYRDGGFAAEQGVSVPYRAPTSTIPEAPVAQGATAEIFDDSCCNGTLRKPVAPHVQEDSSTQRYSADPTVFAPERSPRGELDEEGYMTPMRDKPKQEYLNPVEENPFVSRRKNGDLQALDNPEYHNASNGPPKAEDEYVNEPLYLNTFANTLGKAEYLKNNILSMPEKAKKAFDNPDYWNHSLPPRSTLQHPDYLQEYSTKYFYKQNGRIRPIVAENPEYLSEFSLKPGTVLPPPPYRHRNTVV

[12] = target: ErbB-1 (Homo sapiens, UniProt P00533); conditions: ability to activate the receptor; cited from earlier work
[13] = IC50 on WT EGFR kinase activity, 10 μM ATP
[14] = IC50 on WT EGFR kinase activity, 100 μM ATP
[15] = IC50 on WT EGFR kinase activity, 250 μM ATP, conducted only once
[16] = read-out: IC50 on WT EGFR kinase activity, 10 μM ATP
[17] = read-out: IC50 on WT EGFR kinase activity, 100 μM ATP
[18] = read-out: IC50 on WT EGFR kinase activity, 250 μM ATP, conducted only once

CC1=C(/C=C/C(C)=C/C=C/C(C)=C\C(=O)O)C(C)(C)CCC1 [13-cis-retinoic acid]
Inhibition of TrxR [1]: irreversible inhibition

NC(CSSCCS(=O)(=O)O)C(=O)NCC(=O)O (centres unmarked) [MSSCG, mesna-cysteinyl glycine disulfide]
Substrate preference of Trx [2]: preferred slightly
more inhibition of WT EGFR relative to 4 nM Erlotinib alone ([3]; 10 μM ATP, 0.50 mM + 4 nM Erlotinib): 28%
more inhibition of WT EGFR relative to 4 nM Erlotinib alone ([3]; 10 μM ATP, 0.75 mM + 4 nM Erlotinib (MSSCG series)): 43%

NC(CCSSCCS(=O)(=O)O)C(=O)O (centres unmarked) [MSSH, mesna-homocysteine disulfide]
NADPH oxidation by TrxR and Trx [4]: increases

CS(=O)(=O)OCCCCOS(C)(=O)=O [busulfan]
Inhibition of GR [5]: not GR
Inhibition of TrxR [1]: irreversibly inhibited

N.N.O=C([O-])C1(C(=O)[O-])CCC1.[Pt+2] [carboplatin]
Inhibition of GR [5]: could not inhibit
Inhibition of TrxR [1]: could not inhibit

O=NN(CCCl)C(=O)NCCCl [carmustine]
Inhibition of GR [5]: can inhibit
Inhibition of TrxR [1]: can inhibit

O=C(O)CCCc1ccc(N(CCCl)CCCl)cc1 [chlorambucil]
Inhibition of GR [5]: not GR
Inhibition of TrxR [1]: irreversibly inhibited

N.N.[Cl][Pt][Cl] [cisplatin]
Inhibition of GR [5]: not GR
Inhibition of TrxR [1]: irreversibly inhibited

O=P1(N(CCCl)CCCl)NCCCO1 (centres unmarked) [cyclophosphamide]
Inhibition of GR [5]: not GR
Inhibition of TrxR [1]: irreversibly inhibited

COc1cccc2c1C(=O)c1c(O)c3c(c(O)c1C2=O)C[C@@](O)(C(C)=O)C[C@@H]3O[C@H]1C[C@H](N)[C@H](O)[C@H](C)O1 [daunorubicin]
Inhibition of TrxR [1]: not inhibitors

COc1cccc2c1C(=O)c1c(O)c3c(c(O)c1C2=O)C[C@@](O)(C(=O)CO)C[C@@H]3O[C@H]1C[C@H](N)[C@H](O)[C@H](C)O1 [doxorubicin]
Inhibition of TrxR [1]: not inhibitors

N[C@@H](CCC(=O)N[C@@H](CS)C(=O)NCC(=O)O)C(=O)O [glutathione, γ-glutamyl-cysteinyl-glycine, reference compound]
Glutathione adduct on Trx [6]: glutathionylated at cysteine-73 (Cys73)

O=P1(NCCCl)OCCCN1CCCl (centres unmarked) [ifosfamide]
Inhibition of TrxR [1]: inhibited

N[C@@H](Cc1ccc(N(CCCl)CCCl)cc1)C(=O)O [melphalan]
Inhibition of GR [5]: not GR
Inhibition of TrxR [1]: irreversibly inhibited

NC(CSSCCS(=O)(=O)O)C(=O)O (centres unmarked) [mesna-cysteine]
IC50 ([7]; 10 μM ATP): 3.76 ± 0.26 mM
potentiation of Erlotinib inhibition of T790M EGFR kinase activity [7]: effectively potentiated
IC50 ([7]; 100 μM ATP): 3.03 ± 0.28 mM
potentiation of Erlotinib inhibition of WT EGFR kinase activity [3]: effectively potentiated
IC50 [3, 13]: 2750 ± 800 µM
IC50 [3, 14]: 2650 ± 110 µM
IC50 [3, 15]: 2870 µM

NC(CSSCCS(=O)(=O)O)C(=O)NC(CCC(=O)O)C(=O)O (centres unmarked) [mesna-cysteinylglutamate]
IC50 ([7]; 10 μM ATP): 1.09 ± 0.19 mM
potentiation of Erlotinib inhibition of T790M EGFR kinase activity [7]: effectively potentiated
IC50 ([7]; 100 μM ATP): 1.05 ± 0.08 mM
potentiation of Erlotinib inhibition of WT EGFR kinase activity [3]: effectively potentiated
IC50 [3, 16]: 714 ± 120 µM
IC50 [3, 17]: 815 ± 20 µM
IC50 [3, 18]: 690 µM

NC(CSSCCS(=O)(=O)O)C(=O)NCC(=O)O (centres unmarked) [mesna-cysteinylglycine]
IC50 ([7]; 10 μM ATP): 0.51 ± 0.01 mM
potentiation of Erlotinib inhibition of T790M EGFR kinase activity [7]: effectively potentiated
IC50 ([7]; 100 μM ATP): 0.41 ± 0.05 mM
potentiation of Erlotinib inhibition of WT EGFR kinase activity [3]: effectively potentiated
IC50 [3, 13]: 445 ± 80 µM
IC50 [3, 14]: 370 ± 121 µM
IC50 [3, 15]: 320 µM

NC(CCC(=O)NC(CSSCCS(=O)(=O)O)C(=O)NCC(=O)O)C(=O)O (centres unmarked) [mesna-glutathione]
IC50 ([7]; 10 μM ATP): 1.28 ± 0.29 mM
potentiation of Erlotinib inhibition of T790M EGFR kinase activity [7]: effectively potentiated
IC50 ([7]; 100 μM ATP): 1.17 ± 0.01 mM
potentiation of Erlotinib inhibition of WT EGFR kinase activity [3]: effectively potentiated
IC50 [3, 16]: 724 ± 220 µM
IC50 [3, 17]: 820 ± 240 µM
IC50 [3, 18]: 1570 µM

N.N.O.[Cl][Pt+] [monoaquocisplatin, reference compound]
effect of extended exposure on microtubule protein polymerization [8]: notable and reproducible loss

O=C1[O][Pt]2([NH][C@@H]3CCCC[C@H]3[NH]2)[O]C1=O [oxaliplatin]
Inhibition of GR [5]: not GR
Inhibition of TrxR [1]: irreversibly inhibited

N.N.[Cl][Pt+2][Cl] [transplatin]
Inhibition of GR [5]: not GR
Inhibition of TrxR [1]: irreversibly inhibited

EGF: growth factor ligand of ErbB receptors
ErbB-2 [9]: −
ErbB-3 [10]: −
ErbB-4 [11]: −

HB-EGF: growth factor ligand of ErbB receptors
ErbB-2 [9]: −
ErbB-1 [12]: +
ErbB-3 [10]: −
ErbB-4 [11]: +

TGF-α: growth factor ligand of ErbB receptors
ErbB-2 [9]: −
ErbB-3 [10]: −
ErbB-4 [11]: −

amphiregulin: growth factor ligand of ErbB receptors
ErbB-2 [9]: −
ErbB-1 [12]: +
ErbB-3 [10]: −
ErbB-4 [11]: −

betacellulin: growth factor ligand of ErbB receptors
ErbB-2 [9]: −
ErbB-1 [12]: +
ErbB-3 [10]: −
ErbB-4 [11]: +

epiregulin: growth factor ligand of ErbB receptors
ErbB-2 [9]: −
ErbB-1 [12]: +
ErbB-3 [10]: −
ErbB-4 [11]: +

neuregulin 1
ErbB-2 [9]: −
ErbB-1 [12]: −
ErbB-3 [10]: +
ErbB-4 [11]: +

B1: epigen: growth factor ligand of ErbB receptors (protein, UniProt Q6UW88 23-154, looked up)
Epigen: AAVTVTPPITAQQGNWTVNKTEADNIEGPIALKFSHLCLEDHNSYCINGACAFHHELEKAICRCFTGYTGERCEHLTLTSYAVDSYEKYIAIGIGVGLLLSGFLVIFYCYIRKRCLKLKSPYNVCSGERRPL
ErbB-2 [9]: −
ErbB-1 [12]: +
ErbB-3 [10]: −
ErbB-4 [11]: −
